Converted amounts (≈) assume the structure as drawn. “And” between values parts separate entries of the source, which are not always exact repeats. Equal entries are not always repeated.
Key:
Experiment in all cases: ≥ marks a high value that may be exact or a test limit, other limits are often not marked, values filed in µg/mL are converted to µM
[1] = tested on: Micrococcus luteus A270
[2] = tested on: Escherichia coli D22
[3] = tested on: Aspergillus fumigatus
[4] = tested on: Neurospora crassa CBS 327-54
[5] = tested on: Bacillus cereus
[6] = tested on: Staphylococcus aureus ATCC 6538
[7] = tested on: Lactococcus lactis
[8] = tested on: Staphylococcus aureus
[9] = tested on: Escherichia coli
[10] = tested on: Escherichia coli NCTC 10418
[11] = tested on: Candida krusei
[12] = tested on: Streptococcus sanguinis ATCC 10556
[13] = tested on: Candida krusei ATCC 20029
[14] = tested on: Staphylococcus epidermidis ATCC 12228
[15] = tested on: Cryptococcus neoformans ATCC 24067
[16] = tested on: Acinetobacter baumannii ATCC 19606
[17] = tested on: Cryptococcus neoformans
[18] = tested on: Aggregatibacter actinomycetemcomitans ATCC 29522
[19] = tested on: Escherichia coli ATCC 10536
[20] = tested on: Pseudomonas aeruginosa ATCC 27853
[21] = tested on: Cryptococcus gattii ATCC 32608
[22] = tested on: Mycobacterium tuberculosis WXY
[23] = tested on: Escherichia coli ATCC 25922
[24] = tested on: Mycobacterium tuberculosis H37Rv
[25] = tested on: Klebsiella pneumoniae ST258
[26] = tested on: Mycobacterium tuberculosis
[27] = tested on: Mycobacterium tuberculosis FYX
[28] = tested on: Mycobacterium tuberculosis CAS3
[29] = tested on: Pseudomonas corrugata DSM 7228
[30] = tested on: Pectobacterium carotovorum subsp. carotovorum DSM 30168
[31] = tested on: Staphylococcus aureus 90857
[32] = tested on: Clavibacter michiganensis subsp. michiganensis DSM 46294
[33] = tested on: Pseudomonas syringae pv. tomato DC3000
[34] = tested on: Pseudomonas syringae pv. syringae DSM 10604
[35] = tested on: Xanthomonas vesicatoria DSM 50861
[36] = tested on: Pseudomonas putida GPp104
[37] = tested on: Escherichia coli JM109
[38] = tested on: Escherichia coli BL21(DE3)
[39] = tested on: Cupriavidus necator H16

CSCC[C@H](NC(=O)[C@H](CO)NC(=O)[C@@H](N)CO)C(=O)N[C@@H](CCCCN)C(=O)N[C@@H](CC(C)C)C(=O)N[C@@H](CO)C(=O)N[C@@H](Cc1ccccc1)C(=O)N[C@@H](CCCN=C(N)N)C(=O)N[C@@H](C)C(=O)N[C@@H](CCCN=C(N)N)C(=O)N[C@@H](C)C(=O)N[C@@H](Cc1ccc(O)cc1)C(=O)NCC(=O)N[C@@H](Cc1ccccc1)C(=O)N[C@@H](CCCN=C(N)N)C(=O)NCC(=O)N1CCC[C@H]1C(=O)NCC(=O)N[C@@H](CC(C)C)C(=O)N[C@@H](CCC(N)=O)C(=O)N[C@@H](CC(C)C)C(=O)O [SSMKLSFRARAYGFRGPGLQL]
MIC [1]: 10 µM (≈ 23.4 µg/mL) | MIC [2]: ≥ 100 µM | MIC [3]: ≥ 100 µM | MIC [4]: 10 µM (≈ 23.4 µg/mL)

CC[C@H](C)[C@H](NC(=O)[C@H](CCCCN)NC(=O)[C@H](CCCCN)NC(=O)[C@H](CC(C)C)NC(=O)[C@H](CC(=O)O)NC(=O)[C@@H](NC(=O)[C@@H](N)Cc1ccccc1)C(C)C)C(=O)N[C@@H](C)C(=O)N[C@@H](CC(N)=O)C(=O)N[C@H](C(=O)N[C@H](C(=O)N[C@@H](CC(N)=O)C(=O)N[C@@H](CO)C(=O)N[C@H](C(=O)N[C@@H](Cc1ccccc1)C(N)=O)[C@@H](C)CC)[C@@H](C)CC)[C@@H](C)CC [FVDLKKIANIINSIF]
MIC [5]: 14.4 µM (≈ 25 µg/mL) | MIC [6]: 3.1 µM (≈ 5.38 µg/mL) | MIC [7]: 14.4 µM (≈ 25 µg/mL) | MIC [8]: 14.4 µM (≈ 25 µg/mL) | MIC [9]: > 100 µM | MIC [10]: ≥ 100 µM

CC[C@H](C)[C@H](N)C(=O)N[C@@H](Cc1c[nH]c2ccccc12)C(=O)N[C@@H](CC(C)C)C(=O)N[C@H](C(=O)N[C@@H](C)C(=O)N[C@@H](CC(C)C)C(=O)N[C@@H](CCCCN)C(=O)N[C@@H](Cc1ccccc1)C(=O)N[C@@H](CC(C)C)C(=O)NCC(=O)N[C@@H](CCCCN)C(=O)N[C@@H](CC(N)=O)C(=O)N[C@@H](CC(C)C)C(=O)NCC(=O)N[C@@H](CCCCN)C(=O)N[C@@H](Cc1cnc[nH]1)C(=O)N[C@@H](CC(C)C)C(=O)N[C@@H](C)C(=O)N[C@@H](CCCCN)C(=O)N[C@@H](CCC(N)=O)C(=O)N[C@@H](CCC(N)=O)C(=O)N[C@@H](CC(C)C)C(=O)N[C@@H](C)C(=O)N[C@@H](CCCCN)C(=O)N[C@@H](CC(C)C)C(N)=O)[C@@H](C)O [IWLTALKFLGKNLGKHLAKQQLAKL]
MIC [11]: 26.3 µM (≈ 74.5 µg/mL) | MIC [6]: 5.52 µM (≈ 15.6 µg/mL) | MIC [12]: 10.9 µM (≈ 30.9 µg/mL) | MIC [13]: 14.2 µM (≈ 40.3 µg/mL) | MIC [14]: 0.7 µM (≈ 1.98 µg/mL) | MIC [15]: 7.11 µM (≈ 20.1 µg/mL) | MIC [16]: 0.7 µM (≈ 1.98 µg/mL) | MIC [17]: 13.2 µM (≈ 37.4 µg/mL) | MIC [18]: 10.6 µM (≈ 30 µg/mL) | MIC [19]: 5.52 µM (≈ 15.6 µg/mL) | MIC [20]: 2.82 µM (≈ 7.99 µg/mL) | MIC [21]: 2.23 µM (≈ 6.32 µg/mL)

CC(C)C[C@H](NC(=O)[C@H](CCCCN)NC(=O)[C@H](CCCCN)NC(=O)[C@H](CO)NC(=O)[C@H](Cc1ccccc1)NC(=O)[C@H](CCCCN)NC(=O)[C@H](CCCCN)NC(=O)[C@H](CC(C)C)NC(=O)CNC(=O)[C@H](CCCCN)NC(=O)[C@H](CC(C)C)NC(=O)CNC(=O)[C@H](Cc1c[nH]c2ccccc12)NC(=O)[C@@H](N)Cc1ccccc1)C(=O)O [FWGLKGLKKFSKKL]
MIC [22]: 22.3 µM (≈ 37.5 µg/mL) | MIC [23]: 25 µM (≈ 42 µg/mL) | MIC [24]: 11.9 µM and 11.2 µM | MIC [25]: 29.8 µM (≈ 50 µg/mL) | MIC [26]: 5.95 µM (≈ 10 µg/mL) | MIC [20]: > 29.8 µM | MIC [27]: 11.2 µM (≈ 18.8 µg/mL) | MIC [28]: 11.2 µM (≈ 18.8 µg/mL)

CC(C)C[C@H](NC(=O)[C@H](CCCCN)NC(=O)[C@H](CCCN=C(N)N)NC(=O)[C@H](CCCN=C(N)N)NC(=O)[C@@H](N)CCCCN)C(=O)N[C@@H](C)C(=O)N[C@@H](Cc1ccccc1)C(=O)N[C@@H](CCCN=C(N)N)C(=O)N[C@@H](CC(C)C)C(=O)N[C@@H](Cc1ccccc1)C(=O)N[C@@H](CCCN=C(N)N)C(=O)N[C@@H](CC(C)C)C(=O)N[C@@H](Cc1ccccc1)C(=O)N[C@@H](CC(C)C)C(=O)N[C@@H](CCCCN)C(=O)N[C@@H](CC(C)C)C(=O)N[C@H](C(=O)N[C@@H](CC(C)C)C(=O)N[C@@H](CCCCN)C(=O)N[C@@H](CCCCN)C(N)=O)C(C)C [KRRKLAFRLFRLFLKLVLKK]
MIC [29]: 0.971 µM (≈ 2.5 µg/mL) | MIC [30]: 3.88 µM (≈ 10 µg/mL) | MIC [31]: 16 µM (≈ 41.2 µg/mL) | MIC [32]: 0.194 µM (≈ 0.5 µg/mL) | MIC [33]: 0.971 µM (≈ 2.5 µg/mL) | MIC [34]: 1.94 µM (≈ 5 µg/mL) | MIC [35]: 0.0971 µM (≈ 0.25 µg/mL)

CC[C@H](C)[C@H](NC(=O)[C@H](Cc1ccc(O)cc1)NC(=O)[C@@H](NC(=O)[C@@H]1CCCN1C(=O)[C@H](CCCN=C(N)N)NC(=O)[C@@H](NC(=O)[C@@H]1CCCN1C(=O)[C@@H](N)CCCN=C(N)N)C(C)C)C(C)C)C(=O)N1CCC[C@H]1C(=O)N[C@@H](CCC(N)=O)C(=O)N1CCC[C@H]1C(=O)N[C@@H](CCCN=C(N)N)C(=O)N1CCC[C@H]1C(=O)N1CCC[C@H]1C(=O)N[C@@H](Cc1cnc[nH]1)C(=O)N1CCC[C@H]1C(=O)N[C@@H](CCCN=C(N)N)C(=O)N[C@@H](CC(C)C)C(=O)O [RPVRPVYIPQPRPPHPRL]
MIC [36]: 6.25 µM (≈ 13.6 µg/mL) | MIC [37]: 6.25 µM (≈ 13.6 µg/mL) | MIC [38]: 0.313 µM (≈ 0.681 µg/mL) | MIC [39]: 10 µM (≈ 21.8 µg/mL)
